The molecules below were run against human NaV subtype, like NaV 1.7 (Homo sapiens, UniProt Q15858) (assay: E-VIPR optical membrane potential assay with electrical stimulation). Conditions: one or more sodium channels; assay and NaV subtype not specified for Table 3; read-out: IC50 Binned Activity Data.
Type: cell-based
Excerpt: Assays for Detecting and Measuring NaV Inhibition Properties of Compound E-VIPR Optical Membrane Potential Assay Method with Electrical Stimulation
Sodium channels are voltage-dependent proteins that can be activated by inducing membrane voltage changes by applying electric fields. The electrical stimulation instrument and methods of use are described in Ion Channel Assay Methods PCT/US01/21652, herein incorporated by reference and are referred to as E-VIPR. The instrument comprises a microtiter plate handler, an optical system for exciting the coumarin dye while simultaneously recording the coumarin and oxonol emissions, a waveform generator, a current- or voltage-controlled amplifier, and a device for inserting electrodes in well. Under integrated computer control, this instrument passes user-programmed electrical stimulus protocols to cells within the wells of the microtiter plate.
24 hours before the assay on E-VIPR, HEK cells expressing human NaV subtype, like NaV 1.7, are seeded in 384-well poly-lysine coated plates at 15,000-20,000 cells per well. Other subtypes are performed in an analogous mode in a cell line expressing the NaV of interest. HEK cells are grown in media (exact composition is specific to each cell type and NaV subtype) supplemented with 10% FBS (Fetal Bovine Serum, qualified; GibcoBRL #16140-071) and 1% Pen-Strep (Penicillin-Streptomycin; GibcoBRL #15140-122). Cells are grown in vented cap flasks, in 90% humidity and 10% CO2, to 100% confluence. They are usually split by trypsinization 1:10 or 1:20, depending on scheduling needs, and grown for 2-3 days before the next split.
100 mg/mL Pluronic F-127 (Sigma #P2443), in dry DMSO
Compound Plates: 384-well round bottom plate, e.g. Corning 384-well Polypropylene Round Bottom #3656
Cell Plates: 384-well tissue culture treated plate, e.g. Greiner #781091-1B
Bath1 buffer. Glucose 10 mM (1.8 g/L), Magnesium Chloride (Anhydrous), 1 mM (0.095 g/L), Calcium Chloride, 2 mM (0.222 g/L), HEPES 10 mM (2.38 g/L), Potassium Chloride, 4.5 mM (0.335 g/L), Sodium Chloride 160 mM (9.35 g/L).
Hexyl Dye Solution: Bath1 Buffer+0.5% β-cyclodextrin (make this prior to use, Sigma #C4767), 8 μM CC2-DMPE+2.5 μM DiSBAC6(3). To make the solution Add volume of 10% Pluronic F127 stock equal to volumes of CC2-DMPE+DiSBAC6(3). The order of preparation is first mix Pluronic and CC2-DMPE, then add DiSBAC6(3) while vortexing, then add Bath1+β-Cyclodextrin.
1) Pre-spot compounds (in neat DMSO) into compound plates. Vehicle control (neat DMSO), the positive control (20 mM DMSO stock tetracaine, 125 μM final in assay) and test compounds are added to each well at 160× desired final concentration in neat DMSO. Final compound plate volume will be 80 μL (80-fold intermediate dilution from 1 μL DMSO spot; 160-fold final dilution after transfer to cell plate). Final DMSO concentration for all wells in assay is 0.625%.
2) Prepare Hexyl Dye Solution.
3) Prepare cell plates. On the day of the assay, medium is aspirated and cells are washed three times with 100 μL of Bath1 Solution, maintaining 25 μL residual volume in each well.
4) Dispense 25 μL per well of Hexyl Dye Solution into cell plates. Incubate for 20-35 minutes at room temp or ambient conditions.
5) Dispense 80 μL per well of Bath1 into compound plates. Acid Yellow-17 (1 mM) is added and Potassium Chloride can be altered from 4.5 to 20 mM depending on the NaV subtype and assay sensitivity.
6) Wash cell plates three times with 100 μL per well of Bath1, leaving 25 of residual volume. Then transfer 25 uL per well from Compound Plates to Cell Plates. Incubate for 20-35 minutes at room temp/ambient condition
7) Read Plate on E-VIPR. Use the current-controlled amplifier to deliver stimulation wave pulses for typically 9 seconds and a scan rate of 400 Hz. A pre-stimulus recording is performed for 0.5 seconds to obtain the un-stimulated intensities baseline. […]

Chain of human NaV subtype, like NaV 1.7 (Q15858 whole entry): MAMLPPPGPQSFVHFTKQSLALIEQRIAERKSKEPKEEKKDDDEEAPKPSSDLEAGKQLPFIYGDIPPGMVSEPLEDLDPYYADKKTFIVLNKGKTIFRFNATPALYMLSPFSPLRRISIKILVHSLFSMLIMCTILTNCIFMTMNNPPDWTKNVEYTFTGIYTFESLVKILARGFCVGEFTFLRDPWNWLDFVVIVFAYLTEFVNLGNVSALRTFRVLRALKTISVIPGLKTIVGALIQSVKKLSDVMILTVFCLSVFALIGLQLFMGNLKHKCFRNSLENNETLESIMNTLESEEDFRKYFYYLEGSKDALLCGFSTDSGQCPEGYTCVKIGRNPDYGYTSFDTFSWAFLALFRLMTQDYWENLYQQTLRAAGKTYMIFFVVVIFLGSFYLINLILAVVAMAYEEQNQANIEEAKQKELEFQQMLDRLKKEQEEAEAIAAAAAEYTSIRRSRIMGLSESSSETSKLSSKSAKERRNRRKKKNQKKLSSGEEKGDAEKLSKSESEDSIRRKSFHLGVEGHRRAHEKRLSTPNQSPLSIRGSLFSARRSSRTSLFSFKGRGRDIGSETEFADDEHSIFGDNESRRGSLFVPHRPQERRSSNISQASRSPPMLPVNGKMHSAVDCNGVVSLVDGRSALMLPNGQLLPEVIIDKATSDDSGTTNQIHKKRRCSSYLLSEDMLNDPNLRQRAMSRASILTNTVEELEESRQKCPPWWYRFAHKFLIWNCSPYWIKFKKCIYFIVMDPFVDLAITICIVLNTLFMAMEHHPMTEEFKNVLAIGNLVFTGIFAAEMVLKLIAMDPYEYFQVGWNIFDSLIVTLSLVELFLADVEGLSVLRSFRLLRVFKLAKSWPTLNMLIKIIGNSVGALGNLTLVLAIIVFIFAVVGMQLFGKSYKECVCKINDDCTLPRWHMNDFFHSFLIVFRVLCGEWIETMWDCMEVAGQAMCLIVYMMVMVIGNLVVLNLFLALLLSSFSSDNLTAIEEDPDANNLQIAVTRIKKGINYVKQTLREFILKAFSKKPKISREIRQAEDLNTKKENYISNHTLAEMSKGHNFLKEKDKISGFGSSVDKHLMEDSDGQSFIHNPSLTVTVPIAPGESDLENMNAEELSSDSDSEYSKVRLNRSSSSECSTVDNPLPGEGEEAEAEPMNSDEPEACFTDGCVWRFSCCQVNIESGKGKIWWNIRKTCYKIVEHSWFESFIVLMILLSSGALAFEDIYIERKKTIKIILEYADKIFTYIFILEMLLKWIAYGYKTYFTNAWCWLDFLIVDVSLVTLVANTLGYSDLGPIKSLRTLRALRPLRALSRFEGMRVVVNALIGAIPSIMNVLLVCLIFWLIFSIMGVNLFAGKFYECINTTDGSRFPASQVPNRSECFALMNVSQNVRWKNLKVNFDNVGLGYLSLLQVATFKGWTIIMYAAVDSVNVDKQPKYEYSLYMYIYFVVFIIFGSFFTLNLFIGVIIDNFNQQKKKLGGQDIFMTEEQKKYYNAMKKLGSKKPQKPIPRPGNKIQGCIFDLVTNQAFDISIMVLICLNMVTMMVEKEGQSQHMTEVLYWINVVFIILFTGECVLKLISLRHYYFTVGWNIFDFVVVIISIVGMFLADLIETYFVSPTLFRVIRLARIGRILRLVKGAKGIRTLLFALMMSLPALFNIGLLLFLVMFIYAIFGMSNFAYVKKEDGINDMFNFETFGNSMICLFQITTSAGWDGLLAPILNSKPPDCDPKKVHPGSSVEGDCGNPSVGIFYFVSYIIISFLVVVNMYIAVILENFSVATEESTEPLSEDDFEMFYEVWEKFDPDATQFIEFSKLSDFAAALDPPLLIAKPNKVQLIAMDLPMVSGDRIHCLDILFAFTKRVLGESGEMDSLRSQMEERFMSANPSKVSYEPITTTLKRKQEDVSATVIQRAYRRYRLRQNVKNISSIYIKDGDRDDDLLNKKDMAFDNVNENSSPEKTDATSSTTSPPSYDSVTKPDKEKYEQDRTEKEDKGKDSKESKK

SMILES	IC50 [nM]
CCCOC1CC(c2cncs2)OC2(CCN(C(=O)c3ccc(OC(C)C)c(C)c3)CC2)C1 (stereo not drawn) [Compound 8]	≤ 2000
CCOC1CC(c2cncs2)OC2(CCN(C(=O)c3ccc(OC(C)C)c(C)c3)CC2)C1 (stereo not drawn) [Compound 18]	≤ 2000
CCOC1CC(c2ccccc2)OC2(CCN(C(=O)c3ccc(F)c(F)c3OC)CC2)C1 (stereo not drawn) [Compound 19]	≤ 2000
CCOC1CC(c2ccccc2)OC2(CCN(C(=O)c3cc(C)c(OC(C)C)c(C)c3)CC2)C1 (stereo not drawn) [Compound 29]	≤ 2000
CCOC1CC(c2cccnc2)OC2(CCN(C(=O)c3ccc(C(C)(C)C)c(OC)c3)CC2)C1 (stereo not drawn) [Compound 37]	≤ 2000
CCOC1CC(c2cccnc2)OC2(CCN(C(=O)c3ccc(OC(C)C)c(C)n3)CC2)C1 (stereo not drawn) [Compound 38]	2000 to 5000
CCOC1CC(c2cccnc2)OC2(CCN(C(=O)c3ccc(OCCC(C)C)c(OC)c3)CC2)C1 (stereo not drawn) [Compound 39]	≤ 2000
CCOC1CC(c2ccccc2)OC2(CCN(C(=O)c3ccc(COCC(F)(F)F)cc3)CC2)C1 (stereo not drawn) [Compound 46]	≤ 2000
CCOC1CC(c2ccccc2)OC2(CCN(C(=O)c3ccc(C#N)c(C)n3)CC2)C1 (stereo not drawn) [Compound 50]	> 5000
CCOC1CC(c2ccccc2)OC2(CCN(C(=O)c3cc(-c4ccc(C)cc4)on3)CC2)C1 (stereo not drawn) [Compound 53]	2000 to 5000
CCOC1CC(c2ccccc2)OC2(CCN(C(=O)c3ccc(OC)c(OC(F)F)c3)CC2)C1 (stereo not drawn) [Compound 62]	≤ 2000
CCOC1CC(c2ccccc2)OC2(CCN(C(=O)c3cccnc3N3CCCCC3)CC2)C1 (stereo not drawn) [Compound 64]	≤ 2000
CCOc1ncc(Cl)cc1C(=O)N1CCC2(CC1)CC(OCC)CC(c1ccccc1)O2 (stereo not drawn) [Compound 68]	2000 to 5000
CCOC1CC(c2ccccc2)OC2(CCN(C(=O)c3ccc(N4CCCC4)nc3)CC2)C1 (stereo not drawn) [Compound 70]	2000 to 5000
CCOC1CC(c2ccccc2)OC2(CCN(C(=O)c3cccnc3NC(C)C)CC2)C1 (stereo not drawn) [Compound 75]	≤ 2000
CCOC1CC(c2ccccc2)OC2(CCN(C(=O)c3c[nH]c4ncccc34)CC2)C1 (stereo not drawn) [Compound 89]	≤ 2000
CCOC1CC(c2ccccc2)OC2(CCN(C(=O)c3ccc(N4CCOCC4)cc3)CC2)C1 (stereo not drawn) [Compound 93]	≤ 2000
CCOC1CC(c2ccccc2)OC2(CCN(C(=O)c3cnc4ccccc4c3)CC2)C1 (stereo not drawn) [Compound 95]	> 5000
CCOC1CC(c2ccccc2)OC2(CCN(C(=O)c3ccc(C)cc3F)CC2)C1 (stereo not drawn) [Compound 97]	≤ 2000
CCOC1CC(c2ccccc2)OC2(CCN(C(=O)c3cccc(C)n3)CC2)C1 (stereo not drawn) [Compound 122]	> 5000
CCOC1CC(c2ccccc2)OC2(CCN(C(=O)c3ccc(OC(C)C)c(C#N)c3)CC2)C1 (stereo not drawn) [Compound 127]	≤ 2000
CCOC1CC(c2ccccc2)OC2(CCN(C(=O)c3ccc(OC(F)F)c(OC)c3)CC2)C1 (stereo not drawn) [Compound 135]	≤ 2000
CCOC1CC(c2ccccc2)OC2(CCN(C(=O)c3ccc(OC(C)(C)C)c(OC)c3)CC2)C1 (stereo not drawn) [Compound 137]	≤ 2000
CCOC1CC(c2ccccc2)OC2(CCN(C(=O)c3ccc(O[C@@H](C)CC)c(OC)c3)CC2)C1 (stereo partly drawn) [Compound 139]	≤ 2000
CCOC1CC(c2ccccc2)OC2(CCN(C(=O)c3ccc(OC(C)C)c(Cl)c3)CC2)C1 (stereo not drawn) [Compound 171]	≤ 2000
CCOC1CC(c2ccccc2)OC2(CCN(C(=O)c3ccc(C4(O)CCC4)cc3)CC2)C1 (stereo not drawn) [Compound 176]	≤ 2000
CCOC1CC(CC)OC2(CCN(C(=O)c3ccc(OC(C)C)c(C)c3)CC2)C1 (stereo not drawn) [Compound 194]	2000 to 5000

— US9403839B2, “Pyran-spirocyclic piperidine amides as modulators of ion channels” (Vertex Pharmaceuticals Incorporated, priority 2012, dated 2016)
